Marks after values point to notes of the source that are not given here.
What was measured:
[1] = Precipitation with CO2 in solutions containing different amino acids, ethanol and water (table 3); assay type: physicochemical; conditions: for Concentration of amino acid in the liquid, Before precipitation / Concentration of amino acid in the liquid, After precipitation / Precipitate: 0.5M NaOH; for Concentration of amino acid in the liquid, After precipitation / Precipitate: after CO2; for Precipitate: includes sodium (bi)carbonate; for share of the amino acid precipitated when providing CO2: 80 wt. % ethanol
Text: A variety of eluates, comprising different amino acids, and solvent concentrations were subjected to the precipitation stage as summarized in table 3: […]

[2] = Precipitation stage: eluate (desorption) samples sparged with CO2, acid quantified again; assay type: physicochemical; conditions: for reduction of amino acid concentration in solution (in the eluate) after CO2 sparging: eluate samples with highest amino acid content, 0.425 M KOH in 93.5 wt. % ethanol; for reduction of organic acid concentration in solution after sparging with CO2: desorption samples of Example 1 (90 wt. % ethanol, 1M KOH)
Procedure: In the precipitation stage, the desorption samples were sparged with CO2, and the organic acids were quantified again the precipitation stage.
The eluate was separated into four samples of 7.5 mL each.

[3] = 20 wt. % water, 80% wt. % ethanol
[4] = 37.6 wt. % water, 62.4 wt. % ethanol
[5] = 50 wt. % water, 50 wt. % ethanol
[6] = second 7.5 mL eluate sample, 90 wt. % methanol, 0.85M KOH

SMILES	Concentration of amino acid in the liquid, Before precipitation [1, 3]	Concentration of amino acid in the liquid, After precipitation [1, 3] [µg/mL]	Precipitate [1, 3] [g/L]	Concentration of amino acid in the liquid, Before precipitation [1, 4] [g/L]	Concentration of amino acid in the liquid, After precipitation [1, 4] [µg/mL]	Precipitate [1, 4] [g/L]	reduction of glutamic acid concentration in solution after CO2 sparging ([2]; 0.85 M KOH in 90 wt. % ethanol (AA4))	reduction of glutamic acid concentration in solution after CO2 sparging ([2]; 1M NaOH in 62.4 wt. % ethanol (AA5))	reduction of amino acid concentration in solution (in the eluate) after CO2 sparging [2]	behaviour of the amino acid when providing CO2 ([1]; 50 wt. % ethanol)	Concentration of amino acid in the liquid, Before precipitation [1, 5] [g/L]	Concentration of amino acid in the liquid, After precipitation [1, 5] [µg/mL]	Precipitate [1, 5] [g/L]	behaviour of the amino acid when providing CO2 ([1]; 62.4% ethanol)	share of the amino acid precipitated when providing CO2 [1]	concentration in eluate sample after CO2 sparging [2, 6] [µg/mL]	concentration in eluate sample before CO2 sparging [2, 6] [µg/mL]	reduction of organic acid concentration in solution after sparging with CO2 [2]
N[C@@H](CCC(=O)O)C(=O)O [Glutamic acid]	10.1* g/L	700	33.7	10.1	4800	30.5	approximately 74%	approximately 90%	approximately 68%									
CC(C)C[C@H](N)C(=O)O [Leucine, L-leucine]	10.3 g/L	9100	20.7	9.6	9700	18.1			> 99%	remained in solution	10.2	10200	12.6	remained in solution	less than 10%			
NCCCC[C@H](N)C(=O)O [Lysine]	10.3 g/L	3400	32.5	10.4	10300	22.0					10.3	10600	25.9					
CSCC[C@H](N)C(=O)O [Methionine]	10.2 g/L	4100	27.4	10.2	9600	21.2					10.3	9600	15.2					
N[C@@H](Cc1ccccc1)C(=O)O [Phenylalanine]	10.3 g/L	3600	27.4	10.2	9100	20.6					10.3	10300	16.9					
N[C@@H](CCC(=O)[O-])C(=O)[O-].[Na+].[Na+] [Sodium glutamate]	10.1* g/L	800	35.5	10.1	4300	34.1				remained in solution	10.1	10800	17.5	partially precipitated	over 90%			
CC(=O)O [acetate]																24300	24600	
C[C@H](N)C(=O)O [alanine, L-alanine]									~31%									
CCCCCC(=O)O [caproate, caproic acid]																		(essentially) no reduction
CC(O)C(=O)O (stereo not drawn) [lactate, lactic acid]																		(essentially) no reduction

Reference: patent publication US20240124387A1, “ACID RECOVERY” (GREENCOVERY B.V., priority 2021, published 2024)
